Measured values published in patent US9499535B2, “Kinase inhibitors” (ORIGENIS GMBH, priority 2011, dated 2016).

Columns and labels:
[1] = target: MYLK (Homo sapiens, UniProt Q15746); assay: MYLK assay (LanthaScreen Eu Kinase Binding Assay); settings: 5 nM MYLK, 30 nM tracer 236, RT 1 h; read-out: MYLK Activites: IC50
Description: In the assay LanthaScreen™ Eu Kinase Binding Assay by Invitrogen Corporation (Carlsbad) the effect of invention of a compound on the phosphorylation is determined by measurement of fluorescence intensity emission ratio based on the binding and displacement of a proprietary, Alexa Fluor® 647-labeled, ATP-competitive kinase inhibitor scaffold (kinase tracer) to the kinase of interest as described above.
To the wells of an 384 well small volume plate (Greiner, Frickenhausen) are added (i) the compound under test in 5% DMSO/distilled water (5 μl), (ii) 5 μl of the kinase antibody mixture resulting in a final concentration 5 nM MYLK, 2 nM EU-Anti-GST antibody in 1× kinase buffer A. The reaction was started with addition of (iii) 5 μl resulting in a final concentration of 30 nM tracer 236. The assay plate was incubated at RT for 1 h and fluorescence intensitiy readings were collected using a TECAN M1000 at two wavelengthes of λex 340/λem 615 nm and λex 340/λem 665 nm with a delay time of 100 μs and an integration time of 200 μs after 60 minutes. The emission ratio was calculated by division of the acceptor/tracer emission ([…]) by the antibody/donor emission ([…]). The inhibitor concentration was plotted versus the emission ratio to determine the IC50 using XLFit 5.0 (IDBS, Guildford) to fit to a sigmoidal dose response curve with a variable slope.

[2] = target: T1, SYK kinase (Homo sapiens, UniProt P43405); assay: SYK assay (OMNIA Kinase Assay, Invitrogen); assay type: biochemical; settings: apparent Ki calculated from the IC50 using the Cheng-Prusoff equation; 1 mM ATP, 10 μM Peptide Substrate; read-out: SYK Activities: Ki
T1 construct: purchased Invitrogen, Carlsbad
In short: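 Reaction velocities were measured from kinetic fluorescence reads (360/485 nm, every 30 s over 30 min) of Mg2+-chelated SOX signal. Conditions were 1 mM ATP, 10 μM Omnia Tyr 7 peptide and 0.2 mM DTT at 30° C. Sigmoidal IC50 fits were converted to apparent Ki using Cheng-Prusoff.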

[3] = target: LRRK2 (Homo sapiens, UniProt Q5S007); assay: LRRK2 assay (LanthaScreen Eu Kinase Binding Assay); settings: 5 nM LRRK2, 10 nM tracer 236, RT 1 h; read-out: LRRK2 Activites: IC50
From the text: Binding of the tracer to the kinase is detected using a europium-labeled anti-tag antibody, which binds to the kinase of interest. […] Binding of an inhibitor to the kinase competes for binding with the tracer, resulting in a loss of FRET. The fluorescence intensity ratio is directly proportional to the amount of peptide phosphorylation.
The inhibitor concentration was plotted versus the emission ratio to determine the IC50 using XLFit 5.0 (IDBS, Guildford) to fit to a sigmoidal dose response curve with a variable slope.

LRRK2, sequence (Q5S007 970-2527 limits assumed): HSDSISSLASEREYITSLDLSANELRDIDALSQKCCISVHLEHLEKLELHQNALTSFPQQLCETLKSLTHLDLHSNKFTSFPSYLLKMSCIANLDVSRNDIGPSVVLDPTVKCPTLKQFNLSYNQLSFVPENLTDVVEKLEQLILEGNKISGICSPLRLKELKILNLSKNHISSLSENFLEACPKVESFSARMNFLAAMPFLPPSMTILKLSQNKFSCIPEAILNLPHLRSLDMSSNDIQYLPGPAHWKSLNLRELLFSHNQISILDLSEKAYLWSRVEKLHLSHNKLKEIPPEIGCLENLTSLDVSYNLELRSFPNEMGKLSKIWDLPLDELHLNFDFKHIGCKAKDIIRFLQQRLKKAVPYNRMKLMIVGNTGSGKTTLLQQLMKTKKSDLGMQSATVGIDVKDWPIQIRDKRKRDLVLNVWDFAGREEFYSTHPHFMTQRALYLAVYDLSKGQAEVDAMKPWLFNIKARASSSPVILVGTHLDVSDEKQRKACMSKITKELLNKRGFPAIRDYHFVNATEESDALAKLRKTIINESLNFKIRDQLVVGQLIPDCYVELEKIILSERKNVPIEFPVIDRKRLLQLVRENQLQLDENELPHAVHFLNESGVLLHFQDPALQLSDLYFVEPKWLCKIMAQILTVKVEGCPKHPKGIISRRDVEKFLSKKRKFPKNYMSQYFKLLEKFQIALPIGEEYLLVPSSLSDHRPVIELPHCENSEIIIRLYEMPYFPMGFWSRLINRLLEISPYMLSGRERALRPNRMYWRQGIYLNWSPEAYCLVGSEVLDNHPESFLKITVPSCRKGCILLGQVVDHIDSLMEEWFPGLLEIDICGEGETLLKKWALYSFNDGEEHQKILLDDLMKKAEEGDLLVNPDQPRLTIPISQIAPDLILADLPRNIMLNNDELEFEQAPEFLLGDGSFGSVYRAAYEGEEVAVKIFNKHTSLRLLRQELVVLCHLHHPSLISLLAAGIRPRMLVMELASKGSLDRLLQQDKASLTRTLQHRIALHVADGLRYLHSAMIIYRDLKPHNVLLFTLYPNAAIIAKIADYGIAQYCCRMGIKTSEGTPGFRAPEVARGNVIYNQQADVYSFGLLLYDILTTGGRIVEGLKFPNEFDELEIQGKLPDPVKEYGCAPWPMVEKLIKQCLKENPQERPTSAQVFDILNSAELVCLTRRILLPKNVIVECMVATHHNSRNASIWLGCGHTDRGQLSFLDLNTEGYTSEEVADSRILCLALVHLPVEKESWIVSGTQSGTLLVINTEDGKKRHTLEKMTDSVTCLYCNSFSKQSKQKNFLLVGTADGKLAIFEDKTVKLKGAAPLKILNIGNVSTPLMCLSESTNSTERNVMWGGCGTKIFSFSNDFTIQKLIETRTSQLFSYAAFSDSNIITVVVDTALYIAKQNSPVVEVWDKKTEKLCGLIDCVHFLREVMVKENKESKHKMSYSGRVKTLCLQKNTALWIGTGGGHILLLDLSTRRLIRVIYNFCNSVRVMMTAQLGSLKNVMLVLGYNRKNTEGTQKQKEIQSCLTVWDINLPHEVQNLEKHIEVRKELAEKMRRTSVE
MYLK, sequence (Q15746 whole entry): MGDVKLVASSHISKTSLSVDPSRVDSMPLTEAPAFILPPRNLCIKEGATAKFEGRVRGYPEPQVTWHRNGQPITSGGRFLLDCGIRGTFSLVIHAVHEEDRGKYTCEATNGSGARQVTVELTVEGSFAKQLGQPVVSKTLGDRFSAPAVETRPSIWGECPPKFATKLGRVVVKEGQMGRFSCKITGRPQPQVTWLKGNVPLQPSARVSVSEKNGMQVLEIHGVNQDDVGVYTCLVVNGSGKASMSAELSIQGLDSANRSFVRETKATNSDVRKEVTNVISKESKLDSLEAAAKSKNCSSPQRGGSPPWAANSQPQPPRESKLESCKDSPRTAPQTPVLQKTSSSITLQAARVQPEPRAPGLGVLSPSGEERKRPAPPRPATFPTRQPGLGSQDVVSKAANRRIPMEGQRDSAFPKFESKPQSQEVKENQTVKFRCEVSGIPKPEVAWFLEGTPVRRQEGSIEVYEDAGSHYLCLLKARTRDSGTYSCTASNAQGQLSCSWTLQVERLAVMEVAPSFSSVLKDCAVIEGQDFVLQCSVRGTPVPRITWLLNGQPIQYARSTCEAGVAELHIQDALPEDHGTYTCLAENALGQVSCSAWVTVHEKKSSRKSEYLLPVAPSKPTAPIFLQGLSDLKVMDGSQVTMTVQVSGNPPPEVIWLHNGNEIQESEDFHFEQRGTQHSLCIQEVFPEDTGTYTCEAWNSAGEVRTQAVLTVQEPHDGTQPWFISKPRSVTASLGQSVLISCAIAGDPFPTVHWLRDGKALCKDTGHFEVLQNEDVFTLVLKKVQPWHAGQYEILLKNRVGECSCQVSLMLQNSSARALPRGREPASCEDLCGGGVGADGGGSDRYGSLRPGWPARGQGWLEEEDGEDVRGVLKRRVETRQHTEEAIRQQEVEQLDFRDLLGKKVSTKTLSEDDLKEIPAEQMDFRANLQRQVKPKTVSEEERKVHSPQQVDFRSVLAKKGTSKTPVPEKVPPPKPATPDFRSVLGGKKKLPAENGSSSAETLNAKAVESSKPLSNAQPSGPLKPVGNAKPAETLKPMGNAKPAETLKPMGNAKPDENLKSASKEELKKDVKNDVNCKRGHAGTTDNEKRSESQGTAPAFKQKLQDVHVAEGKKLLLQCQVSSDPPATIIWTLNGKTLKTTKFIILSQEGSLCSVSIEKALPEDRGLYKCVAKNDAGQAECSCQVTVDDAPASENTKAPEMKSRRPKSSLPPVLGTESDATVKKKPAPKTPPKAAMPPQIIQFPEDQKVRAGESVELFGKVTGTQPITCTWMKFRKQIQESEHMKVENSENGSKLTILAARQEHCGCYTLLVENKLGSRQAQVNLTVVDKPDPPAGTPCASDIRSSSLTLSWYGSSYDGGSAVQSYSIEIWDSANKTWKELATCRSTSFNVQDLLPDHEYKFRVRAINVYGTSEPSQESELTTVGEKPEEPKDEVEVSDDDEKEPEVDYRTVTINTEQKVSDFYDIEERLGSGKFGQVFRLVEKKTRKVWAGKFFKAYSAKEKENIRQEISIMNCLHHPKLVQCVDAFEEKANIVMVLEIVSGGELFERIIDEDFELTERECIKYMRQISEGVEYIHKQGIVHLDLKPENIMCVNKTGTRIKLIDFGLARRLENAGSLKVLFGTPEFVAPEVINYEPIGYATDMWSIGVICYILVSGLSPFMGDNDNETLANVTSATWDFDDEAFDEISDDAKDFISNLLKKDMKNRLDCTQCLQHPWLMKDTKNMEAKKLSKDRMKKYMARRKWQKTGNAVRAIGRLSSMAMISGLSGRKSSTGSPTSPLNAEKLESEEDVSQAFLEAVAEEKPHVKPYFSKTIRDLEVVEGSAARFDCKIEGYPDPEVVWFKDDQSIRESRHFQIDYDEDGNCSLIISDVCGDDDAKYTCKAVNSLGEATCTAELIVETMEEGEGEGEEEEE

Compound	IC50 [1] [µM]	Ki [2] [nM]	IC50 [3] [nM]
Cc1cc(Nc2nc3ccc(Br)cc3c3c[nH]nc23)cc2cn[nH]c12 [Example #41, (8-Bromo-2H-pyrazolo[3,4-c]quinolin-4-yl)-(7-methyl-1H-indazol-5-yl)-amine]	< 5	10 to 100	–
COc1ccc2nc(Nc3ccc(C(N)=O)cc3)c3n[nH]cc3c2c1 [Example #58, 4-(8-Methoxy-2H-pyrazolo[3,4-c]quinolin-4-ylamino)-benzamide]	< 5	10 to 100	–
O=C1COc2ccc(Nc3nc4ccc(Br)cc4c4c[nH]nc34)cc2N1 [Example #116, 6-(8-Bromo-2H-pyrazolo[3,4-c]quinolin-4-ylamino)-4H-benzo[1,4]oxazin-3-one]	< 5	–	–
COc1ccc2nc(Nc3nccc(N)n3)c3n[nH]cc3c2c1 [Example #139, N2-(8-methoxy-2H-pyrazolo[3,4-c]quinolin-4-yl)pyrimidine-2,4-diamine]	< 5	100 to 1000	–
COc1ccc2nc(Nc3ccc4ncc(=O)[nH]c4c3)c3n[nH]cc3c2c1 [Example #194, 7-(8-Methoxy-2H-pyrazolo[3,4-c]quinolin-4-ylamino)-1H-quinoxalin-2-one]	< 5	100 to 1000	–
COc1cccc2c1nc(Nc1ccc(CN(C)C)cc1)c1n[nH]cc12 [Example #233, (4-Dimethylaminomethyl-phenyl)-(6-methoxy-2H-pyrazolo[3,4-c]quinolin-4-yl)-amine]	< 5	< 10	–
COc1cccc2c1nc(Nc1ccccc1)c1n[nH]cc12 [Example #261, (6-Methoxy-2H-pyrazolo[3,4-c]quinolin-4-yl)-phenyl-amine]	< 5	10 to 100	–
COc1ccc2c(c1)nc(Nc1ccc3[nH]cnc3c1)c1n[nH]cc12 [Example #263, (1H-Benzoimidazol-5-yl)-(7-methoxy-2H-pyrazolo[3,4-c]quinolin-4-yl)-amine]	< 5	< 10	–
COc1cccc2c1nc(Nc1ccc(CN3CCN(C)CC3)cc1)c1n[nH]cc12 [Example #278, (6-Methoxy-2H-pyrazolo[3,4-c]quinolin-4-yl)-[4-(4-methyl-piperazin-1-ylmethyl)-phenyl]-amine]	< 5	100 to 1000	–
COc1ccc2nc(Nc3ccc(CC(=O)O)cc3)c3n[nH]cc3c2c1 [Example #285, 2-(4-((8-methoxy-2H-pyrazolo[3,4-c]quinolin-4-yl)amino)phenyl)acetic acid]	–	100 to 1000	100 to 1000
COc1ccc2nc(Nc3ccc(N4CCSCC4)cc3)c3[nH]ncc3c2c1 [Example #293, 8-methoxy-N-(4-thiomorpholinophenyl)-2H-pyrazolo[3,4-c]quinolin-4-amine]	–	< 10	10 to 100
COc1ccc2nc(Nc3ccc(C(=O)N4CCC4)cc3)c3n[nH]cc3c2c1 [Example #302, azetidin-1-yl(4-((8-methoxy-2H-pyrazolo[3,4-c]quinolin-4-yl)amino)phenyl)methanone]	–	10 to 100	< 10
COc1ccc2nc(Nc3ccc(F)cc3)c3n[nH]cc3c2c1 [Example #310, N-(4-fluorophenyl)-8-methoxy-2H-pyrazolo[3,4-c]quinolin-4-amine]	–	10 to 100	100 to 1000
COc1ccc2nc(Nc3ccc(NC(=O)C(F)(F)F)cc3)c3n[nH]cc3c2c1 [Example #312, 2,2,2-trifluoro-N-(4-((8-methoxy-2H-pyrazolo[3,4-c]quinolin-4-yl)amino)phenyl)acetamide]	–	100 to 1000	100 to 1000
COc1ccc2nc(Nc3ccc4c(c3)N=C(NCCCO)CO4)c3n[nH]cc3c2c1 [Example #313, 3-((6-((8-methoxy-2H-pyrazolo[3,4-c]quinolin-4-yl)amino)-2H-benzo[b][1,4]oxazin-3-yl)amino)propan-1-ol]	–	10 to 100	10 to 100
COc1ccc2nc(Nc3ccc4c(c3)N=C(NCCc3ccccc3)CO4)c3n[nH]cc3c2c1 [Example #314, N6-(8-methoxy-2H-pyrazolo[3,4-c]quinolin-4-yl)-N3-phenethyl-2H-benzo[b][1,4]oxazine-3,6-diamine]	–	10 to 100	10 to 100

Compound	IC50 [1] [µM]	Ki [2] [nM]	IC50 [3] [nM]
COc1ccc2nc(Nc3cc(F)c(F)c(F)c3)c3n[nH]cc3c2c1 [Example #317, 8-methoxy-N-(3,4,5-trifluorophenyl)-2H-pyrazolo[3,4-c]quinolin-4-amine]	–	10 to 100	100 to 1000
COc1ccc2nc(Nc3ccc(N4CCOCC4)c(OC)c3)c3n[nH]cc3c2c1 [Example #319, 8-methoxy-N-(3-methoxy-4-morpholinophenyl)-2H-pyrazolo[3,4-c]quinolin-4-amine]	–	10 to 100	100 to 1000
COc1ccc2nc(Nc3ccc(C(O)(C(F)(F)F)C(F)(F)F)cc3)c3n[nH]cc3c2c1 [Example #321, 1,1,1,3,3,3-hexafluoro-2-(4-((8-methoxy-2H-pyrazolo[3,4-c]quinolin-4-yl)amino)phenyl)propan-2-ol]	–	100 to 1000	100 to 1000
O=C(c1ccc(Nc2nc3ccc(F)cc3c3cn[nH]c23)cc1)N1CCCC1 [Example #322, (4-((8-fluoro-3H-pyrazolo[3,4-c]quinolin-4-yl)amino)phenyl) (pyrrolidin-1-yl)methanone]	< 5	–	–
Fc1ccc2nc(Nc3ccc(N4CCOCC4)cc3)c3[nH]ncc3c2c1 [Example #325, 8-fluoro-N-(4-morpholinophenyl)-3H-pyrazolo[3,4-c]quinolin-4-amine]	–	10 to 100	100 to 1000
COc1ccc2nc(Nc3ccc(OC(F)F)c(OC)c3)c3n[nH]cc3c2c1 [Example #328, N-(4-(difluoromethoxy)-3-methoxyphenyl)-8-methoxy-2H-pyrazolo[3,4-c]quinolin-4-amine]	–	100 to 1000	100 to 1000
COc1ccc2nc(Nc3ccc(S(=O)(=O)N(C)C)cc3)c3n[nH]cc3c2c1 [Example #343, 4-((8-methoxy-2H-pyrazolo[3,4-c]quinolin-4-yl)amino)-N,N-dimethylbenzenesulfonamide]	–	10 to 100	100 to 1000
COc1ccc2nc(Nc3cccc(S(=O)(=O)NC4CC4)c3)c3n[nH]cc3c2c1 [Example #344, N-cyclopropyl-3-((8-methoxy-2H-pyrazolo[3,4-c]quinolin-4-yl)amino)benzenesulfonamide]	–	10 to 100	10 to 100
COc1ccc2nc(Nc3cccc(S(=O)(=O)CCO)c3)c3n[nH]cc3c2c1 [Example #351, 2-((3-((8-methoxy-2H-pyrazolo[3,4-c]quinolin-4-yl)amino)phenyl)sulfonyl)ethan-1-ol]	–	100 to 1000	100 to 1000
Ic1ccc2nc(Nc3ccc(N4CCOCC4)cc3)c3[nH]ncc3c2c1 [Example #355, 8-iodo-N-(4-morpholinophenyl)-3H-pyrazolo[3,4-c]quinolin-4-amine]	–	10 to 100	100 to 1000
O=C(c1ccc(Nc2nc3ccc(I)cc3c3cn[nH]c23)cc1)N1CCCC1 [Example #356, (4-((8-iodo-3H-pyrazolo[3,4-c]quinolin-4-yl)amino)phenyl)(pyrrolidin-1-yl)methanone]	–	100 to 1000	100 to 1000
CC(=O)N1CCN(c2ccc(Nc3nc4ccc(I)cc4c4cn[nH]c34)cc2)CC1 [Example #357, 1-(4-(4-((8-iodo-3H-pyrazolo[3,4-c]quinolin-4-yl)amino)phenyl)piperazin-1-yl)ethan-1-one]	–	10 to 100	100 to 1000
COc1ccc2nc(Nc3ccc(F)cc3F)c3n[nH]cc3c2c1 [Example #360, N-(2,4-difluorophenyl)-8-methoxy-2H-pyrazolo[3,4-c]quinolin-4-amine]	< 5	–	–
COc1ccc(Nc2nc3cccc(F)c3c3cn[nH]c23)cc1OC [Example #361, N-(3,4-dimethoxyphenyl)-9-fluoro-3H-pyrazolo[3,4-c]quinolin-4-amine]	–	100 to 1000	100 to 1000
CS(=O)(=O)c1cccc(Nc2nc3cccc(F)c3c3cn[nH]c23)c1 [Example #362, 9-fluoro-N-(3-(methylsulfonyl)phenyl)-3H-pyrazolo[3,4-c]quinolin-4-amine]	–	< 10	100 to 1000
CN1CCN(C2CCN(c3ccc(Nc4nc5cccc(F)c5c5cn[nH]c45)cc3)CC2)CC1 [Example #363, 9-fluoro-N-(4-(4-(4-methylpiperazin-1-yl)piperidin-1-yl)phenyl)-3H-pyrazolo[3,4-c]quinolin-4-amine]	–	10 to 100	10 to 100
